“And” between values parts separate entries of the source, which are not always exact repeats. Identical values can stand only once. Like-named read-outs stand apart in the source and are kept apart here.

The record followed here is patent US20110045001A1, “Transfection results of non-viral gene delivery systems by influencing of the innate immune system” (Biontex Laboratories GmbH, priority 2008, published 2011).

The test system of data set [1] is HeLa-Luc cells. The data set can be described thus: Vitality determination with trypan blue after siRNA transfection in the presence of TLR7/8 agonists (Example 9). The settings on record: 48 hours. The protocol: (§1) The cells are to be plated out at a cell count of 2×10^4 cells/cm^2 per well of 250 μl of complete medium.
(§2) First of all, the first 5 wells of the first three rows of a 48-well plate are each filled with 30 μl of PBS.
(§3) The stock solution of anti-luciferase-siRNA and the non-specific-control-siRNA is adjusted to a concentration of 1 pmol/10 μl with PBS. Then 10 μl of the working solution of the anti-luciferase-siRNA are pipetted into each of the first three wells of the first three rows of the 48-well plate. 10 μl of the working solution of the non-specific-control-siRNA are pipetted into each fourth well.
(§4) The Metafectene Pro reagent is diluted 1:300 with PBS. 20 μl of that dilution are introduced into each well containing siRNA.
(§5) The lipoplexes are then incubated for 20 minutes at room temperature. Then 250 μl of cell suspension are added to each well.
Two different agonists are added to the first 2 columns of the two 48-well plates, with three different working concentrations of the agonists being used. The agonists are in lyophilised form. They are dissolved with endotoxin-free water to form stock solutions having the concentration 100 μg/ml. The stock solutions are each diluted 1:10 with water to give working solutions. […]
After the addition of the agonists, the two 48-well plates are incubated in a CO2 incubator for 48 hours.
After an incubation period of 48 hours, the cells of a plate are trypsinised and, using a Neubauer counting chamber, vitality measurement is carried out for each well with trypan blue.

The test system of data set [2] is HeLa-Luc cells. The experiment in a line: Luciferase assay after siRNA transfection in the presence of TLR7/8 agonists (Example 9). It counts as cell-based, human. The settings on record: imiquimod 0.25 μg/ml final concentration (row A, column 1) + anti-luciferase-siRNA/Metafectene Pro; 48 hours. As to the method:
as §1, §2, §3, §4, §5
Two different agonists are added to the first 2 columns of the two 48-well plates, with three different working concentrations of the agonists being used. The agonists are in lyophilised form. They are dissolved with endotoxin-free water to form stock solutions having the concentration 100 μg/ml. The stock solutions are each diluted 1:10 with water to give working solutions.
Of the imiquimod working solution, 0.78 μl (=0.25 μg/ml final concentration) are pipetted into A1, 15.5 μl (=5 μg/ml) into A2 and 31 μl (=10 μg/ml) into A3. […]

The subject of data set [3] is HeLa-Luc cells. The experiment in a line: Luciferase assay after anti-luciferase-siRNA transfection in the presence of kinase inhibitors (Example 8). The settings on record: anti-luciferase-siRNA 1 pMol/well, Metafectene Pro.
Data set [4] deals with HeLa cells. The settings on record: transfection repeated on 3rd day, pre-incubation 2 hours, development time 10 min. The protocol: 1st day: HeLa cells are sown in a 48-well plate, the cells being plated out at a cell count of 0.8*10^5 cells per well of 250 μl of complete medium (10% FCS). […] 1 mg of inhibitor is dissolved in 100 μl of DMSO (stock solution). Dilution is then carried out with PBS 1:20 (working solution). […] The lipoplexes are then prepared. […] The two solutions are then mixed and incubated for 15 min. Finally, 50 μl of the lipoplex solution are added to each well. […] Analogous to Example 1 (with half amounts)

In data set [5] the test system is HeLa cells. The data set can be described thus: β-Galactosidase reporter gene assay after single or repetitive transfection with antagonist (Example 4). It counts as cell-based, human. The settings on record: development time 10 min; for β-Galactosidase assay absorption, average value of duplicates 1&2/2: single transfection. The protocol: 1st day: Analogous to Example 3.
The antagonist is adjusted to a concentration of 0.025 μg/μl with PBS.
The lipoplexes are then prepared.
Analogously to Example 3.
Analogous to Example 1 (with half amounts)

The mark [6] stands for this setting: repetitive transfection, antagonist 0.0625 μg per well.
Setting [7] is: repetitive transfection, antagonist 0.125 μg per well.
Where [8] appears, read: repetitive transfection, antagonist 0.250 μg per well.
The mark [9] stands for this setting: repetitive transfection, antagonist 0.375 μg per well.
Where [10] appears, read: repetitive transfection, antagonist 0.75 μg per well.

Consider `CC(C)Cn1cnc2c(N)nc3ccccc3c21` [Imiquimod, 1-(2-methylpropyl)-1H-imidazo[4,5-c]quinoline-4-amine], for which the “Vitality (trypan blue staining)” value in the data set with HeLa-Luc cells [1] (Imiquimod 0.5 μg/ml + anti-luciferase-siRNA/Metafectene Pro) is on record as 98.6%; with HeLa-Luc cells [1] (Imiquimod 5 μg/ml + anti-luciferase-siRNA/Metafectene Pro), 88.7%; in the data set with HeLa-Luc cells [1] (Imiquimod 10 μg/ml + anti-luciferase-siRNA/Metafectene Pro), 88.6%. In addition, the “Luciferase assay, average value of 3×3 measurements” value (“Luciferase assay, average value” below) in the data set on HeLa-Luc cells [2] stood at 676 RLU/μl cell extract/sec.

Consider `C[S+]([O-])c1ccc(-c2nc(-c3ccncc3)c(-c3ccc(F)cc3)[nH]2)cc1` (stereo not shown) [SB203580], for which the “Luciferase assay, average value” value with HeLa-Luc cells [3] (single transfection, SB203580 5 μM) is on record as 693 RLU/μl ell extract/sec; in the data set with HeLa-Luc cells [3] (single transfection, SB203580 10 μM) it was 747 RLU/μl ell extract/sec; in the data set with HeLa-Luc cells [3] (single transfection, SB203580 20 μM), 630 RLU/μl ell extract/sec; with HeLa-Luc cells [3] (single transfection, SB203580 30 μM), 671 RLU/μl ell extract/sec; in the data set on HeLa-Luc cells [3] (single transfection, SB203580 40 μM), 669 RLU/μl ell extract/sec; with HeLa-Luc cells [3] (transfection repeated on 3rd day, SB203580 5 μM) it was 696 RLU/μl ell extract/sec. Further, the “Luciferase assay, average value” value was 656 RLU/μl ell extract/sec in the data set on HeLa-Luc cells [3] (transfection repeated on 3rd day, SB203580 10 μM); 617 RLU/μl ell extract/sec with HeLa-Luc cells [3] (transfection repeated on 3rd day, SB203580 20 μM); 587 RLU/μl ell extract/sec in the data set with HeLa-Luc cells [3] (transfection repeated on 3rd day, SB203580 30 μM); 610 RLU/μl ell extract/sec in the data set with HeLa-Luc cells [3] (transfection repeated on 3rd day, SB203580 40 μM).

Regarding `N#CC(=C(/N)Sc1ccccc1N)/C(C#N)=C(/N)Sc1ccccc1N` [U0126, 1,4-diamino-2,3-dicyano-1,4-bis(o-aminophenylmercapto)butadiene], the “Luciferase assay, average value” value in the data set on HeLa-Luc cells [3] (single transfection, U0126 75 μM) was 260 RLU/μl ell extract/sec. The “β-Galactosidase assay absorption, average value of 3 measurements” value turned out to be 0.72 in the data set with HeLa cells [4] (inhibitor 5 μM (well E)); 0.92 in the data set on HeLa cells [4] (inhibitor 10 μM (well D)); 0.79 in the data set with HeLa cells [4] (inhibitor 25 μM (well C)); 0.90 in the data set on HeLa cells [4] (inhibitor 50 μM (well B)); 0.97 in the data set with HeLa cells [4] (inhibitor 75 μM (well A)).

As to “Human Interleukin-1 Receptor Antagonist (IL1-ra Human): Human interleukin-1 receptor antagonist, Biomol, Cat. No. 54592”, the “β-Galactosidase assay absorption, average value of 3 measurements” value in the data set with HeLa cells [5] (setting [6]) is 0.791 and 1.021; with HeLa cells [5] (setting [7]), 0.856 and 1.185; with HeLa cells [5] (setting [8]) it was 1.035 and 1.026; in the data set with HeLa cells [5] (setting [9]), 1.076 and 1.081; in the data set with HeLa cells [5] (setting [10]) it was 1.161 and 1.207; in the data set on HeLa cells [5] (single transfection (columns 1, 2), antagonist 0.0625 μg per well, pre-incubation 7 hours), 0.427 and 0.448. Moreover, the “β-Galactosidase assay absorption, average value of 3 measurements” value in the data set with HeLa cells [5] (single transfection (columns 1, 2), antagonist 0.125 μg per well, pre-incubation 7 hours) is 0.415 and 0.435; with HeLa cells [5] (single transfection (columns 1, 2), antagonist 0.250 μg per well, pre-incubation 7 hours), 0.393 and 0.439; in the data set on HeLa cells [5] (single transfection (columns 1, 2), antagonist 0.375 μg per well, pre-incubation 7 hours), 0.392 and 0.460; in the data set with HeLa cells [5] (single transfection (columns 1, 2), antagonist 0.75 μg per well, pre-incubation 7 hours) it was 0.443 and 0.455. For the same compound, the “β-Galactosidase assay absorption, average value of duplicates 3&4/2” value in the data set on HeLa cells [5] (setting [6]) stood at 0.906; in the data set on HeLa cells [5] (setting [7]), 1.020; in the data set on HeLa cells [5] (setting [8]), 1.030; in the data set on HeLa cells [5] (setting [9]), 1.078; in the data set on HeLa cells [5] (setting [10]), 1.184. Further, the “β-Galactosidase assay absorption, average value of duplicates 1&2/2” value in the data set with HeLa cells [5] (antagonist 0.0625 μg per well) is given as 0.437; in the data set on HeLa cells [5] (antagonist 0.125 μg per well), 0.425; in the data set on HeLa cells [5] (antagonist 0.250 μg per well), 0.416; in the data set on HeLa cells [5] (antagonist 0.375 μg per well), 0.426; in the data set with HeLa cells [5] (antagonist 0.75 μg per well), 0.449.
